Source: a melting point compilation (Tetko et al.)

First: NC(=O)c1ccc(C=O)cc1
Second: CC(=O)CC(=O)c1ccc(Br)cc1
The melting point of the first is higher: 100 to 102 °C for the first, 92 to 94 °C for the second.

Compared with `CN(C)CCNS(=O)(=O)c1ccc(Cl)c([N+](=O)[O-])c1`, `O=[N+]([O-])c1cc(F)cc(S(=O)(=O)Cl)c1` is lower in melting point: 88 to 90 °C for the first, 40 to 42 °C for the second.

Compared with `O=S(=O)(NC1CCCNC1)c1cccc(F)c1` (stereo unspecified), `O=C(O)CONS(=O)(=O)c1ccc(F)cc1` is higher in melting point: 137 to 139 °C for the first, 168 to 170 °C for the second.

First: COc1ccc(C(=O)O)cc1-c1ccccc1
Second: Cc1cccc2c(CC(=O)O)c(-c3ccccc3)[nH]c12
The melting point of the first is higher: 220 to 222 °C for the first, 159 to 161 °C for the second.

Compared with `Clc1cc2c(Cl)ncnc2[nH]1`, `Nc1cncc(Cl)c1Cl` is lower in melting point: 239 to 241 °C for the first, 97 to 99 °C for the second.

Compared with `Cc1nc(O)ccc1I`, `Cc1nc2sccn2c1C=O` is lower in melting point: 209 to 211 °C for the first, 94 to 96 °C for the second.

First: CC(=O)Nc1cccc(NC(=O)C(Br)C(C)C)c1 (stereo unspecified)
Second: CC(=O)Nc1ccc(O)c(C(=O)O)c1
The melting point of the first is lower: 179 to 181 °C for the first, 221 to 223 °C for the second.

Compared with `COC(=O)CNC(=O)Cc1ccc(N)cc1`, `CCOc1ccc(C(=O)NCC(=O)O)cc1` is higher in melting point: 93 to 95 °C for the first, 154 to 156 °C for the second.

First: O=C(O)Cc1cn(-c2ccccc2)nc1-c1ccc(F)cc1
Second: O=Cc1cn(-c2ccccc2)nc1-c1ccc(-c2nn(-c3ccccc3)cc2C=O)cc1
The melting point of the first is lower: 145 to 147 °C for the first, 271 to 273 °C for the second.

First: Nc1ccc(Oc2cccc(F)c2)c2ccncc12
Second: Nc1ccc(Oc2ccnc3ccccc23)cc1
The melting point of the first is higher: 137 to 139 °C for the first, 135 to 137 °C for the second.

First: CCCc1ccc(N)c(C(=O)O)c1
Second: CCc1oc2ccccc2c1C(=O)O
The melting point of the first is higher: 116 to 118 °C for the first, 89 to 91 °C for the second.

First: NC(CSCc1cccc2ccccc12)C(=O)O (stereo unspecified)
Second: O=C(O)C(=O)Cc1ccc2ccccc2c1
The melting point of the first is higher: 199 to 201 °C for the first, 188 to 190 °C for the second.

Compared with `OCc1nccn1CC(F)(F)F`, `Cc1nn(-c2cccc(C(F)(F)F)c2)c2sc(C(=O)O)cc12` is higher in melting point: 89 to 91 °C for the first, 271 to 273 °C for the second.

First: CC(C)n1ncc2cc(N)cnc21
Second: Cn1ccnc1-c1noc(N)n1
The melting point of the first is lower: 85 to 87 °C for the first, 197 to 199 °C for the second.

First: O=C1N[C@H](C(=O)O)CS1
Second: CC1CC(C(=O)O)CCC1=O (stereo unspecified)
The melting point of the first is higher: 166 to 170 °C for the first, 69 to 71 °C for the second.

First: CNC(=O)C1Cc2ccccc2CN1 (stereo unspecified)
Second: CC(Cl)C(=O)Nc1ccccc1[N+](=O)[O-] (stereo unspecified)
The melting point of the first is higher: 97 to 99 °C for the first, 71 to 73 °C for the second.

Compared with `NC(=NO)C1CN(Cc2ccccc2)CCO1` (stereo unspecified), `O=C(O)C1CC(=O)N(CCc2ccccc2)C1` (stereo unspecified) is higher in melting point: 116 to 118 °C for the first, 188 to 190 °C for the second.

First: Nc1ccc(SCCCO)cc1
Second: C=CC(=O)Nc1cc(N)ccc1F
The melting point of the first is lower: 62 to 64 °C for the first, 135 to 137 °C for the second.

First: COC(=O)c1cc(S(=O)(=O)Cl)c(Br)cc1Cl
Second: Cc1cc(O)c(C(=O)O)cc1S(=O)(=O)Cl
The melting point of the first is lower: 135 to 137 °C for the first, 162 to 164 °C for the second.

Compared with `O=C(CO)NCc1ccccc1`, `CC(Cl)C(=O)Nc1ccc(OCc2ccccc2)cc1` (stereo unspecified) is higher in melting point: 101 to 103 °C for the first, 141 to 145 °C for the second.

Compared with `COc1ccc(S(=O)(=O)Nc2ccccc2C(=O)O)cc1`, `COc1ccc(Oc2ccc(S(N)(=O)=O)cc2)cc1` is lower in melting point: 183 to 185 °C for the first, 169 to 171 °C for the second.

Compared with `CC1=NN(c2ccc(Cl)nn2)C(=O)C1`, `N#Cc1ccc(N2N=C(c3ccccc3)CC2=O)cc1` is lower in melting point: 229 to 231 °C for the first, 211 to 213 °C for the second.

First: Cc1nnc2[nH]nc(N)c2c1C
Second: Nc1nncc(-c2cc(Cl)ccc2Cl)n1
The melting point of the first is higher: 264 to 266 °C for the first, 175 to 177 °C for the second.

First: Cc1cc(S(N)(=O)=O)cc(C(=O)O)c1C
Second: Cc1cc(C)cc(C=CC(=O)O)c1
The melting point of the first is higher: 261 to 263 °C for the first, 135 to 137 °C for the second.

First: CC(=O)c1ccc(S(=O)(=O)NC(CC(N)=O)C(=O)O)cc1 (stereo unspecified)
Second: CCS(=O)(=O)NCc1ccc(C(=O)O)cc1
The melting point of the first is lower: 180 to 182 °C for the first, 194 to 196 °C for the second.

Compared with `CC(C)(C)OC(=O)Nc1ccc(F)c(N)c1`, `Nc1cc(S(N)(=O)=O)ccc1F` is higher in melting point: 122 to 124 °C for the first, 134 to 136 °C for the second.

First: O=[N+]([O-])c1cn(Cc2ccc(F)cc2)cn1
Second: Cc1nn(-c2ccc(Br)cc2)cc1C=O
The melting point of the first is lower: 109 to 111 °C for the first, 111 to 113 °C for the second.

Compared with `Cc1cn2c(CC(=O)O)csc2n1`, `COc1ccc(-c2nc(CC(=O)O)cs2)cc1OC` is lower in melting point: 211 to 213 °C for the first, 162 to 164 °C for the second.

`NS(=O)(=O)c1cc(F)ccc1Br` and `CC1CNc2cc(F)ccc2C(=O)N1` (stereo unspecified) cannot be ordered by melting point: 170 to 172 °C for the first, 169 to 171 °C for the second.

First: ClCc1cc2ccccc2s1
Second: Nc1ccc2[nH]c(=O)sc2c1
The melting point of the first is lower: 49 to 51 °C for the first, 221 to 223 °C for the second.

Compared with `Cc1cc(Br)c(NC(=O)CCl)c(Br)c1`, `Cc1cc(S(C)(=O)=O)c(C)c(S(=O)(=O)Cl)c1` is lower in melting point: 177 to 178 °C for the first, 122 to 124 °C for the second.

Compared with `Oc1nnc(-c2ccccc2)c(-c2ccccc2)n1`, `O=C(O)Cn1nnc(-c2ccccc2)n1` is lower in melting point: 222 to 224 °C for the first, 180 to 182 °C for the second.

First: Clc1nncc2ccoc12
Second: Clc1ccc(NCc2cccnc2)cc1
The melting point of the first is higher: 117 to 119 °C for the first, 98 to 100 °C for the second.

Compared with `[N-]=[N+]=NC(=O)c1ccco1`, `Cc1ccc(C(=O)N=[N+]=[N-])o1` is lower in melting point: 60 to 62 °C for the first, 33 to 35 °C for the second.

Compared with `O=C(O)CNc1ccccc1[N+](=O)[O-]`, `CSc1ccc(C(=O)O)cc1[N+](=O)[O-]` is higher in melting point: 80 to 82 °C for the first, 225 to 227 °C for the second.

First: O=C1CCc2cc(C(=O)O)ccc2N1
Second: CN1C(=O)c2ccc(C(=O)O)cc2S1(=O)=O
The melting point of the first is higher: 261 to 263 °C for the first, 249 to 251 °C for the second.

First: CS(=O)(=O)CCS(N)(=O)=O
Second: O=C(CBr)c1ccc(S(=O)(=O)N2CCCCC2)cc1
The melting point of the first is higher: 149 to 151 °C for the first, 108 to 110 °C for the second.

First: COCCOc1c(N)cccc1Cl
Second: COCCOc1ccc(C(=O)O)cc1[N+](=O)[O-]
The melting point of the first is lower: 56 to 58 °C for the first, 134 to 136 °C for the second.

First: CCn1nnnc1S
Second: Cc1nc(CC(N)=NO)no1
The melting point of the first is lower: 18 to 20 °C for the first, 142 to 144 °C for the second.

First: COc1ccc(CCNc2nnc(S)s2)cc1OC
Second: COc1cc(C=O)cc(Br)c1OCc1ccccc1
The melting point of the first is higher: 189 to 191 °C for the first, 48 to 50 °C for the second.

First: O=C(O)c1ccc(NC(=O)c2cccc(Br)c2)cc1
Second: CCN(CC)C(=O)c1ccc(C(=O)O)cc1
The melting point of the first is higher: 271 to 273 °C for the first, 157 to 159 °C for the second.

Compared with `NCCc1c[nH]c2cc(Cl)ccc12`, `O=Cc1ccc(-c2c(F)cccc2F)o1` is lower in melting point: 104 to 106 °C for the first, 51 to 53 °C for the second.

First: O=C1c2ccccc2C(=O)N1CC(O)CN1C(=O)c2ccccc2C1=O
Second: NC(=NO)c1cccnc1Oc1ccccc1
The melting point of the first is higher: 206 to 208 °C for the first, 152 to 154 °C for the second.

First: O=C(O)c1cccnc1Oc1ccc(Br)cc1
Second: CN1CCc2nc3ccccc3c(C(=O)O)c2C1
The melting point of the first is lower: 177 to 179 °C for the first, 254 to 256 °C for the second.

Compared with `O=C(O)CCCNC(=O)c1ccco1`, `NNC(=O)CCc1ccco1` is lower in melting point: 91 to 93 °C for the first, 72 to 74 °C for the second.

First: Cc1c(S(=O)(=O)Cl)cnn1-c1ccccn1
Second: O=C1C(=O)N(Cc2ncon2)c2ccc(Br)cc21
The melting point of the first is lower: 53 to 55 °C for the first, 197 to 199 °C for the second.

`CN1CCCC1C(=O)O` (stereo unspecified) and `CC(=O)N1CSCC1C(=O)O` (stereo unspecified) fall in the same range of melting point: 111 to 113 °C for the first, 111 to 113 °C for the second.

First: Nc1nc(Cl)c(C=O)c(N2CCOCC2)n1
Second: CC(C)(C)OC(=O)N1CCN2C(=O)C(=O)NCC2C1 (stereo unspecified)
The melting point of the first is lower: 173 to 175 °C for the first, 222 to 224 °C for the second.

Compared with `O=S1(=O)CC(O)C(NCCO)C1` (stereo unspecified), `CCNC(=O)C1CCCNC1` (stereo unspecified) is lower in melting point: 115 to 117 °C for the first, 60 to 62 °C for the second.

First: COC(=O)C=Cc1ccc([N+](=O)[O-])cc1
Second: CC(C)(C)OC(=O)NC1(C#N)CCCC1
The melting point of the first is higher: 161 to 163 °C for the first, 106 to 108 °C for the second.

`Nc1cc(-c2ccsc2)n[nH]1` gave a melting point of 127 to 129 °C.
